# Test results taken from paper PMC11784013, “Potassium molybdate blocks APN-dependent coronavirus entry by degrading receptor via PIK3C3-mediated autophagy” (Journal of Virology, 2024).
# “Also recorded” adds a separate entry of the source.
# Assays:
# TGEV = experiment: Time-of-drug-addition assay with TGEV in ST cells (inactivation, adsorption, penetration, replication, release); type: cell-based, transmissible gastroenteritis virus
# Protocol: Fig 4 PM dampens TGEV infection by mainly blocking viral entry. (A) Inactivated assay. TGEV (0.1 MOI, red bar) and PM (10 mΜ) or H2O (blue bar) were mixed and incubated at 37°C for 3 and 5 h, respectively, and then the mixtures were added into ST cells. After incubation at 37°C for another 1 h, culture supernatants were replaced with fresh culture medium for 17 h at 37°C. After washing with PBS, the mRNA levels and viral load of TGEV N protein were measured by RT-qPCR. (B) Adsorption assay. ST cells were pretreated with PM (10 mΜ) or H2O (blue bar) for 1 h at 37°C, and then the media were replaced by a mixture of PM (10 mΜ) or H2O and TGEV (5 MOI, red bar) for 0.5 or 1 h at 4°C. After washing with PBS, the genomic RNA levels and viral load of TGEV N protein were measured by RT-qPCR. (C and D) Penetration assay. ST cells were infected with 5 MOI TGEV (red bar) for 1 h at 4°C and were then treated with PM (10 mΜ) or H2O (blue bar) for 1 or 2 h at 37°C after washing with PBS. The cell samples were washed using sodium citrate buffer and tested through RT-qPCR (C) and IFA (D), scale bar: 50 µm/5 µm. (E) Replication assay. ST cells infected with 5 MOI TGEV (red bar) were incubated at 37°C for 3 h and washed with sodium citrate buffer. Then, cells were treated with PM (10 mΜ) or H2O (blue bar) for 5 or 13 h. The cells were harvested and examined by RT-qPCR. (F) Release assay. ST cells were infected with 5 MOI TGEV (red bar) for 16 h and then PM (10 mΜ) or H2O (blue bar) was added to the cells for 1 or 2 h. qRT-PCR was used to test the mRNA levels and viral load of the virus in the supernatant. Results are presented as mean ± SD of data from three independent experiments. ***, P ≤ 0.001; ns, no significance. […]
# red bar) and PM (10 mΜ) or H2O (blue bar) were mixed and incubated at 37 °C for 3 h and 5 h respectively and then the mixtures were added into ST cells. After incubation at 37°C for another 1 h, culture supernatants were replaced with fresh culture medium for 17 h at 37°C. Viral titers were detected by TCID50. (B) Release assay. ST cells were infected with 0.1 MOI TGEV (red bar) for 16 h and then PM (10 mΜ) or H2O (blue bar) was added to the cells for 1 h or 2 h. TCID50 was used to test the viral titers in supernatant. Results are presented as mean ± SD of data from three independent experiments ns, no significant.
# (also on this page, place not known: 3h 5h 0 2 4 6 8 H2O PM log10 TCID50/ml ns ns 0 2 4 6 8 H2O PM log10 TCID50/ml ns ns -3h-5h 17h 18h CollectedPM/H2O) […]
# [1] = test system: PIK3C3-BECN1-ATG14 complex; experiment: Co-IP and confocal analysis of PtdIns3K complex assembly in ST cells; type: cell-based, porcine; conditions: 36 h
# Protocol: Fig 8 PM promotes PIK3C3-BECN1-ATG14 complex assembly by enhancing PIK3C3 Ser249 phosphorylation. (A) ST cells were transfected with pCMV-Myc-PIK3C3 and pCDNA3.1-Flag-BECN1 for 12 h and then treated with PM (10 mM) for 36 h. The Co-IP was carried out by Flag or Myc Ab, followed by western blot analysis. (B) ST cells were transfected with pCDNA3.1-Flag-BECN 1 and pCDNA3.4-His-ATG14 for 12 h and treated with PM (10 mM) for 36 h. The Co-IP was performed with Flag or […] Ab, followed by western blot detection. (C–E) ST cells were transfected with pCMV-Myc-PIK3C3, pCDNA3.1-Flag-BECN1, and pCDNA3.4-His-ATG14 for 12 h, and PM (10 mM) was added to the cells for 36 h. Then Co-IP was performed with a Myc, Flag, and His Ab individually, and all IPs, input, and phosphorylation of PIK3C3 (Ser249), BECN1 (Ser14), and ATG14 (Ser29) were detected by western blot. (F) ST cells were transfected with pCMV-Myc-PIK3C3, pCDNA3.1-Flag-BECN1, and pCDNA3.4-His-ATG14 for 12 h, and PM (10 mM) was added to the cells for 36 h, which detected by IFA, scale bar: 20 µm. (G) Quantification of PIK3C3-BECN1-ATG14 complex (merged signal) from F using Image J software. (H) ST cells were transfected with pCMV-Myc-PIK3C3 or pCMV-Myc-PIK3C3 mutant, pCDNA3.1-Flag-BECN1 and pCDNA3.4-His-ATG14 for 12 h and then treated with PM (10 mM) for 36 h. Then Co-IP was performed with a Myc, Flag, and His Ab individually, and all IPs, input, and phosphorylation of PIK3C3 (Ser249), BECN1 (Ser14), and ATG14 (Ser29) were detected by western blot. Results are presented as mean ± SD of data from three independent experiments. ***, P ≤ 0.001.
# Cotransfected cells were washed with cold PBS twice and lysed with NP40 lysis buffer (Beyotime, China, P0013F) supplemented with 1 mM PMSF (Beyotime, China, ST506) and phosphatase inhibitors (Beyotime, China, P1096). […] Immunoprecipitated proteins were detected by western blotting. […]
smiles,measurement,setting,value
"[K+].[K+].[O]=[Mo](=[O])([O-])[O-] [PM, potassium molybdate]",direct inactivation of TGEV (inactivated assay),"TGEV; PM 10 mM mixed with TGEV 0.1 MOI at 37°C for 3 and 5 h, RT-qPCR, TCID50",cannot inactivate TGEV and affect viral release
same,TGEV release,"TGEV; ST cells, PM 10 mM added 16 h after infection for 1 or 2 h, RT-qPCR, TCID50 of supernatant",cannot inactivate TGEV and affect viral release; also recorded: uninfluential in virus adsorption and release
same,TGEV adsorption,"TGEV; ST cells, PM 10 mM, TGEV 5 MOI, 0.5 or 1 h at 4°C, RT-qPCR",uninfluential in virus adsorption and release
same,TGEV entry (penetration assay),"TGEV; ST cells, PM 10 mM, TGEV 5 MOI, 1 or 2 h at 37°C, RT-qPCR and IFA",significantly inhibited TGEV entry
same,TGEV replication,"TGEV; ST cells, PM 10 mM, TGEV 5 MOI, PM for 5 or 13 h from 3 h after infection, RT-qPCR",moderately restricted viral replication
same,PIK3C3 Ser249 phosphorylation,"[1]; ST cells co-transfected with Myc-PIK3C3, Flag-BECN1, His-ATG14, PM 10 mM",upregulation of PIK3C3 Ser249 phosphorylation
same,"colocalization of Myc-PIK3C3, Flag-BECN1 and His-ATG14 (confocal microscopy)","[1]; ST cells, PM 10 mM",enhanced the colocalization
same,interaction between Myc-PIK3C3 and Flag-BECN1 (Co-IP),"[1]; ST cells, PM 10 mM",increased after PM treatment
